Columns and labels:
[1] = tested on: L6-myotubes; experiment: Glucose uptake in differentiated L6-myotubes (Biological Example 2); assay type: cell-based; conditions: for Emax at 10 µM: read-out: Biological example 2 (GU)
Summary of the method: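 Differentiated L6 myotubes were serum-starved overnight in 0.5% fatty-acid-free BSA and then stimulated with compound or isoprenaline at 1×10^−5 M final. After 1 h 40 min cells were washed and re-dosed in glucose-free medium. Twenty minutes later, uptake of 50 nM ^3H-2-deoxyglucose over 10 min was measured by scintillation counting of NaOH lysates.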

[2] = tested on: L6-myotubes; experiment: Measurement of intracellular cAMP levels in differentiated L6-myotubes (Biological Example 3); assay type: cell-based; conditions: for Emax at 10 µM: 0.25 h
Summary of the method: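 Serum-starved differentiated L6 myotubes stimulated 15 min with test compound at 1×10^−5 M final (isoprenaline as reference) in HBSS with 1% BSA, 5 mM HEPES, 1 mM IBMX, pH 7.4. Cells EtOH-extracted, lysed, and intracellular cAMP measured by AlphaScreen.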

[3] = glucose uptake, compound at 10 μM relative to isoproterenol at 10 μM
[4] = intracellular cAMP, compound at 10 μM relative to isoproterenol at 10 μM
[5] = glucose uptake in differentiated L6-myotubes, compound at 10 μM, activity relative to isoproterenol at 10 μM
[6] = intracellular cAMP in differentiated L6-myotubes, compound at 10 μM, activity relative to isoproterenol at 10 μM

| SMILES | Emax at 10 µM [1, 3] [%] | Emax at 10 µM [2, 4] [%] | Emax at 10 µM [1, 5] [%] | Emax at 10 µM [2, 6] [%] | other results |
| --- | --- | --- | --- | --- | --- |
| CC12CCC([C@@H](O)c3ccccc3Cl)(CC1)N2 [Compound 194, (S)-(o-chlorophenyl)(4-methyl-7-azabicyclo[[2.2.1]]hept-1-yl)methanol] | > 75 | < 25 | – | – | – |
| CC12CCC([C@@H](O)c3ccncc3F)(CC1)N2 [Compound 253, (S)-(3-fluoro-4-pyridyl)(4-methyl-7-azabicyclo[[2.2.1]]hept-1-yl)methanol] | – | – | < 25 | < 25 | – |
| CC(C)(C)NC[C@H](O)c1cncc(Cl)c1 [Compound 138, (R)-2-(tert-butylamino)-1-(5-chloro-3-pyridyl)-1-ethanol] | > 75 | > 75 | – | – | – |
| Oc1ccc(C(O)CNCCC2CC2)cc1 (stereo not shown) [Compound 24, p-[2-(2-cyclopropylethylamino)-1-hydroxyethyl]phenol] | 50 to 75 | < 25 | – | – | – |
| CC(C)(C[C@H]1CC[C@@H](NS(C)(=O)=O)CC1)NC[C@@H](O)c1cccc(C#N)n1 [Compound 424, 6-[(R)-2-{1,1-dimethyl-2-[(1s,4S)-4-(mesylamino)cyclohexyl]ethylamino}-1-hydroxyethyl]-2-pyridinecarbonitrile] | – | – | 25 to 50 | < 25 | – |
| CCC[C@@H]1CC[C@H]([C@H](O)c2cccc(F)c2)N1 [Compound 58] | > 75 | 25 to 50 | – | – | – |
| Cc1ncccc1[C@@H](O)CNC(C)(C)C[C@H]1CC[C@@H](NS(C)(=O)=O)CC1 [Compound 437, (R)-2-{1,1-dimethyl-2-[(1s,4S)-4-(mesylamino)cyclohexyl]ethylamino}-1-(2-methyl-3-pyridyl)-1-ethanol] | – | – | 25 to 50 | < 25 | – |
| COc1ccc(CCC23CCC([C@H](O)c4cncc(F)c4)(CC2)N3)cc1 [Compound 542, (R)-(5-fluoro-3-pyridyl){4-[2-(p-methoxyphenyl)ethyl]-7-azabicyclo[[2.2.1]]hept-1-yl}methanol] | – | – | 50 to 75 | 25 to 50 | – |
| CO[C@H]1CC[C@@H](CCNC[C@H](O)c2cncc(F)c2)CC1 [Compound 238, (R)-1-(5-fluoro-3-pyridyl)-2-{2-[(1s,4S)-4-methoxycyclohexyl]ethylamino}-1-ethanol] | – | – | > 75 | < 25 | – |
| CC1(C)CCC[C@@H]([C@H](O)c2ccccc2F)N1 [Compound 193] | > 75 | 25 to 50 | – | – | – |
| O[C@@H](c1cccc(F)c1)[C@H]1CC[C@@H](Cc2ccc(Cl)cc2)N1 [Compound 391, (S)-{(2R,5S)-5-[(p-chlorophenyl)methyl]-2-pyrrolidinyl}(m-fluorophenyl)methanol] | – | – | 50 to 75 | < 25 | – |
| CC(C)(NC[C@H](O)c1cccc(F)c1)[C@H]1CC[C@@H](O)CC1 [Compound 284, (R)-1-(m-fluorophenyl)-2-{1-methyl-1-[(1s,4S)-4-hydroxycyclohexyl]ethylamino}-1-ethanol] | – | – | 50 to 75 | < 25 | – |
| CC(C)(C[C@H]1CC[C@H](NS(C)(=O)=O)CC1)NC[C@H](O)c1cccc(C(F)(F)F)n1 [Compound 461, (S)-2-{1,1-dimethyl-2-[(1r,4S)-4-(mesylamino)cyclohexyl]ethylamino}-1-[6-(trifluoromethyl)-2-pyridyl]-1-ethanol] | – | – | 25 to 50 | < 25 | – |
| CCCC1(CCC)CC[C@H]([C@H](O)c2cccc(F)c2)N1 [Compound 159] | 50 to 75 | < 25 | – | – | – |
| O[C@@H](CNCCC[C@H]1CC[C@@H](O)CC1)c1cccc(F)c1 [Compound 306, (R)-1-(m-fluorophenyl)-2-{3-[(1s,4R)-4-hydroxycyclohexyl]propylamino}-1-ethanol] | – | – | 25 to 50 | < 25 | – |
| O[C@@H](CNCCC[C@H]1CC[C@@H](OCc2ccccc2)CC1)c1cncc(F)c1 [Compound 275, (R)-1-(5-fluoro-3-pyridyl)-2-{3-[(1s,4R)-4-(benzyloxy)cyclohexyl]propylamino}-1-ethanol] | – | – | 50 to 75 | < 25 | – |
| Oc1ccc(C(O)CNCC2CC2)cc1 (stereo not shown) [Compound 3, p-{2-[(cyclopropylmethyl)amino]-1-hydroxyethyl}phenol] | 50 to 75 | < 25 | – | – | – |
| CN(C)S(=O)(=O)[C@H]1CC[C@H](CC(C)(C)NC[C@H](O)c2cccc(F)c2)CC1 [Compound 464] | – | – | 25 to 50 | 25 to 50 | – |
| CO[C@H]1CC[C@H](CCC23CCC([C@@H](O)c4cccc(F)c4)(CC2)N3)CC1 [Compound 411] | – | – | – | – | Biological example 2 (GU) [1, 5]: +++ (If a compound at 10 μM shows activity of more than 75% of that of isoproterenol at 10 μM, the activity is denoted with +++); Biological example 3 (CAMP) [2, 6]: ++ (if it is between 75 and 50% it is denoted with ++) |

| SMILES | Emax at 10 µM [1, 3] [%] | Emax at 10 µM [2, 4] [%] | Emax at 10 µM [1, 5] [%] | Emax at 10 µM [2, 6] [%] | other results |
| --- | --- | --- | --- | --- | --- |
| CC(C)(C[C@H]1CC[C@H](C(=O)O)CC1)NC[C@H](O)c1cncc(F)c1 [Compound 356, (1R,4r)-4-{2-[(R)-2-(5-fluoro-3-pyridyl)-2-hydroxyethylamino]-2-methylpropyl} cyclohexanecarboxylic acid] | – | – | < 25 | < 25 | – |
| O[C@@H](CNCCC[C@H]1CC[C@@H](OCc2ccccc2)CC1)c1cccc(F)c1 [Compound 277, (R)-1-(m-fluorophenyl)-2-{3-[(1s,4R)-4-(benzyloxy)cyclohexyl]propylamino}-1-ethanol] | – | – | 25 to 50 | < 25 | – |
| CC(C)(C[C@H]1CC[C@H](N)CC1)NC[C@H](O)c1cncc(F)c1 [Compound 359, (R)-2-{1,1-dimethyl-2-[(1r,4R)-4-aminocyclohexyl]ethylamino}-1-(5-fluoro-3-pyridyl)-1-ethanol] | – | – | > 75 | < 25 | – |
| CC(C)(C)NC[C@H](O)c1ccccc1F [Compound 78, (R)-2-(tert-butylamino)-1-(o-fluorophenyl)-1-ethanol] | > 75 | 25 to 50 | – | – | – |
| CC12CC(C1)[C@H]([C@H](O)c1cncc(F)c1)N2 [Compound 220, (R)-{(R)-1-methyl-2-azabicyclo[[2.1.1]]hex-3-yl}(5-fluoro-3-pyridyl)methanol] | – | – | > 75 | < 25 | – |
| CC(C)(NC[C@H](O)c1cccc(F)c1)[C@H]1CC[C@H](OCC(=O)O)CC1 [Compound 402] | – | – | 50 to 75 | < 25 | – |
| CO[C@H]1CC[C@H](CC(C)(C)NC[C@H](O)c2cncc(F)c2)CC1 [Compound 250, (R)-2-{1,1-dimethyl-2-[(1r,4R)-4-methoxycyclohexyl]ethylamino}-1-(5-fluoro-3-pyridyl)-1-ethanol] | – | – | 50 to 75 | < 25 | – |
| O[C@@H](CNCC[C@H]1CC[C@@H](OCc2ccccc2)CC1)c1cccc(F)c1 [Compound 287, (R)-1-(m-fluorophenyl)-2-{2-[(1s,4S)-4-(benzyloxy)cyclohexyl]ethylamino}-1-ethanol] | – | – | 50 to 75 | < 25 | – |
| CC(C)(C)NC[C@H](O)c1ccc(F)cc1O [Compound 80, (R)-2-(tert-butylamino)-1-(4-fluoro-2-hydroxyphenyl)-1-ethanol] | 50 to 75 | < 25 | – | – | – |
| O[C@@H](c1cncc(F)c1)[C@H]1CC[C@H](Cc2ccc(Cl)cc2)N1 [Compound 405, (S)-{(2R,5R)-5-[(p-chlorophenyl)methyl]-2-pyrrolidinyl}(5-fluoro-3-pyridyl)methanol] | – | – | > 75 | < 25 | – |
| CCC(C)NCC(O)c1ccc(O)cc1 (stereo not shown) [Compound 5, 2-(sec-butylamino)-1-(p-hydroxyphenyl)-1-ethanol] | 50 to 75 | < 25 | – | – | – |
| CCCCNC[C@H](O)c1ccc(F)c(O)c1 [Compound 85, (R)-2-(butylamino)-1-(4-fluoro-3-hydroxyphenyl)-1-ethanol] | > 75 | < 25 | – | – | – |
| CCC[C@@H]1CC[C@@H]([C@H](O)c2cccc(F)c2)N1 [Compound 132, (R)-[(2S,5R)-5-propyl-2-pyrrolidinyl](m-fluorophenyl)methanol] | 25 to 50 | < 25 | – | – | – |
| CC(C)(NC[C@H](O)c1cccc(F)c1)[C@H]1CC[C@H](N)CC1 [Compound 381] | – | – | 50 to 75 | < 25 | – |
| COc1ccc(C[C@H]2CC[C@H]([C@@H](O)c3cccc(F)c3)N2)cc1 [Compound 375, (S)-{(2R,5R)-5-[(p-methoxyphenyl)methyl]-2-pyrrolidinyl}(m-fluorophenyl)methanol] | – | – | > 75 | < 25 | – |
| CC1(C)C[C@@H]([C@H](O)c2ccccc2F)N1 [Compound 202, (R)-[(S)-4,4-dimethyl-2-azetidinyl](o-fluorophenyl)methanol] | – | – | < 25 | < 25 | – |
| CO[C@@H]1CCC[C@H](C(C)(C)NC[C@H](O)c2cncc(F)c2)C1 [Compound 257, (R)-2-{1-[(1S,3R)-3-methoxycyclohexyl]-1-methylethylamino}-1-(5-fluoro-3-pyridyl)-1-ethanol] | – | – | 50 to 75 | < 25 | – |
| O[C@@H](CNCCC[C@H]1CC[C@@H](O)CC1)c1cncc(F)c1 [Compound 304, (R)-1-(5-fluoro-3-pyridyl)-2-{3-[(1s,4R)-4-hydroxycyclohexyl]propylamino}-1-ethanol] | – | – | 50 to 75 | < 25 | – |
| CC1(C)CC[C@H]([C@@H](O)c2cncc(F)c2)N1 [Compound 156] | < 25 | < 25 | – | – | – |
